The values below come from ChEMBL document CHEMBL5726187, “Pyrimido-pyridazinone compounds and methods of use thereof” (2019).

The target in test [1] is Tyrosine-protein kinase SYK (Homo sapiens, UniProt P43405). Description: Inhibition of Enzymatic Syk Kinase Activity: 2.5 μL of 10% DMSO or compound in 10% DMSO was added to the wells in a 96 well V-bottom plate. Optimized concentration of in-house Syk enzyme (different batches of Syk (356-635) kinase domain) were used at optimized concentrations) ranging from 0.035 ng to 7.5 ng/reaction diluted in assay buffer was added to a total volume of 12.5 μL). Compound and protein were incubated for 30 minutes at room temperature on a plate shaker. Ten μL of a substrate mix containing 100 μM ATP (0.25 μL), γ-P32-ATP (0.1 μL; 10 μCi/μL), pG4T (0.25 μL; 10 mg/mL) and 1× assay buffer (9.4 μL) was added to all the wells. Samples were incubated at 30° C. for 10 minutes after mixing. The reaction was stopped by the addition of 8N HCl (13 μL) containing 100 mM ATP. Thirty μL of sample was transferred to the center of a 2×2 cm2 Whatman P81 chromatography paper. After allowing the sample to dry for one minute, the assay squares were washed 3 times for 5 minutes each in ortho-phosphoric acid (0.5%) and once in acetone. Assay squares were dried for 15 minutes in a 30° C. oven and transferred to 96 well optiplate. Microscint-O reagent (100 μL, Perkin Elmer) was added to each well, the plate was sealed with Topseal-A microplates and incubated for 10 minutes at room temperature at very low speed on rocker and the plate was read in the Topcount NXL instrument.

Test [2] has as its target Tyrosine-protein kinase JAK2 (Homo sapiens, UniProt O60674). Description: Inhibition of Enzymatic JAK2 Kinase Activity: Two μL of 10% DMSO in blank, substrate control and positive control wells and 2 μL of test compound in test wells was added. Thirteen μL of assay buffer in blank and substrate control wells and 13 μL of Enzyme buffer mix in positive and test wells was added. The reaction mixture was incubated for 30 minutes at RT on a plate shaker. Ultra Light-pGT substrate (5 μL) [poly Glu-Tyr (4:1) labeled with U Light TM dye, a tyrosine kinase substrate] and ATP mix was added to all wells. The reaction plate was incubated for 60 minutes at RT on a plate shaker. The reaction was stopped by adding 40 mM EDTA (10 μL) in buffer. Ten μL of antibody was added to all the wells.

The structures appear in SMILES notation. Where only a bound is given, the exact number is not on record here.

For orientation: IC50 means the concentration that inhibits the measured activity by half.

Chain of Tyrosine-protein kinase JAK2 (O60674 whole entry): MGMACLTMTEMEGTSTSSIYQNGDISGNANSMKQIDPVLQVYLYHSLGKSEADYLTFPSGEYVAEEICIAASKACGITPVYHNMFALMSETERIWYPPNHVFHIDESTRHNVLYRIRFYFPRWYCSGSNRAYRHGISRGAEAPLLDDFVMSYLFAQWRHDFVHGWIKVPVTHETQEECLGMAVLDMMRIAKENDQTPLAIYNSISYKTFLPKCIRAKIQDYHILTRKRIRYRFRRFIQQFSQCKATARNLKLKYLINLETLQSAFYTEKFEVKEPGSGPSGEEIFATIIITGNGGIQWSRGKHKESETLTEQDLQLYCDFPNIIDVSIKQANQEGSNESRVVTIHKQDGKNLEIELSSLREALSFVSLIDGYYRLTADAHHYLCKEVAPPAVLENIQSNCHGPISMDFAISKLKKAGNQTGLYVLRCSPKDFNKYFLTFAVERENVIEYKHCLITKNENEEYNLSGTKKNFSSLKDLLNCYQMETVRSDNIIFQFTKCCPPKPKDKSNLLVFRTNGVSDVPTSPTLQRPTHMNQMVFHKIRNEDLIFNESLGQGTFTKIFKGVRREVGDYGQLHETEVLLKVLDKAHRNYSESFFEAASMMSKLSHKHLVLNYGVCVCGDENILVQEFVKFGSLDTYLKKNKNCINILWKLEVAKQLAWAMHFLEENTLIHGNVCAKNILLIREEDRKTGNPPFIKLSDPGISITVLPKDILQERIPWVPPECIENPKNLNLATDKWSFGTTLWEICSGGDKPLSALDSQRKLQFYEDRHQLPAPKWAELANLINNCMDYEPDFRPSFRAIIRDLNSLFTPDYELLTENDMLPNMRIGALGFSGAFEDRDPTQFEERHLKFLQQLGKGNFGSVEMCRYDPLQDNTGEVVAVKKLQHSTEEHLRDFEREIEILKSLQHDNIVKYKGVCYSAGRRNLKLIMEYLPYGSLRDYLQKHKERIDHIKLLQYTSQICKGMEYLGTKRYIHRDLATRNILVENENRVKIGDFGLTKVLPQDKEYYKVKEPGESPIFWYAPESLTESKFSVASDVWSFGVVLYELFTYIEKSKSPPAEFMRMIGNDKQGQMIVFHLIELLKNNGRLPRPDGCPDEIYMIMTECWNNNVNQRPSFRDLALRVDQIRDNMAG

For `O=c1[nH]ncc2nc(N3CCCCCC3)nc(Nc3ccc(OCCN4CCCNCC4)cc3)c12`, the IC50 in test [1] is less than 50 nM; in test [2], less than 10 nM.
In test [1], `COc1cc(Nc2nc(N3CCCCCC3)nc3cn[nH]c(=O)c23)cc(OC)c1` returned a concentration for half-maximal inhibition (IC50) greater than 100 nM.
In the case of `O=C(O)C1CC12CCC(c1ccc(Nc3nc(N4CCCCC4)nc4cn[nH]c(=O)c34)cc1)CC2` (stereo unspecified), the 50% inhibitory concentration (IC50) in test [1] and in test [2] was less than 50 nM throughout.
For `CC1CC(C)CN(c2nc(Nc3ccc(N4CCC(CC(=O)O)CC4)cc3)c3c(=O)[nH]ncc3n2)C1` (stereo unspecified), the IC50 was less than 50 nM in test [1] and less than 10 nM in test [2].
On the same counts, the results for `O=C(O)C1CC12CCN(c1ccc(Nc3nc(-c4ccc(F)cc4)nc4cn[nH]c(=O)c34)cc1)CC2` (stereo unspecified) are less than 100 nM and less than 50 nM.
The corresponding values for `CC(C)(CO)Oc1ccc(Nc2nc(N3CCC(CC#N)CC3)nc3cn[nH]c(=O)c23)cc1` are less than 50 nM and less than 50 nM.
On the same counts, the results for `CC(C)(O)C(=O)N1CCN(c2ccc(Nc3nc(N4CCC(CC#N)CC4)nc4cn[nH]c(=O)c34)cn2)CC1` are less than 50 nM and less than 50 nM.
As to `N#CCC1CCN(c2nc(Nc3ccc(N4CCC(F)(F)CC4)cc3)c3c(=O)[nH]ncc3n2)CC1`, the IC50 was less than 50 nM in test [1] and less than 10 nM in test [2].
Regarding `CC(C)(C(N)=O)N1CCN(c2ccc(Nc3nc(N4CCCCCC4)nc4cn[nH]c(=O)c34)cc2)CC1`, the half-maximal inhibitory concentration (IC50) in test [1] was less than 50 nM; in test [2], less than 10 nM.
Take `O=c1[nH]ncc2nc(N3CCCCCC3)nc(Nc3ccc(OCCN4CCNCC4)cc3)c12`: in test [1], the half-maximal inhibitory concentration (IC50) was less than 50 nM.
Turning to `O=C(O)C1CC12CCC(c1ccc(Nc3nc(NC4CCCCC4)nc4cn[nH]c(=O)c34)cc1)CC2` (stereo unspecified), the IC50 in test [1] and in test [2] was less than 50 nM in each case.
Regarding `COc1ccc(-c2nc(Nc3ccc(N4CCC5(CC4)CC5C(=O)O)cc3)c3c(=O)[nH]ncc3n2)cc1` (stereo unspecified), the IC50 in test [1] and in test [2] was less than 100 nM each time.
For the molecule `N#CCC1CCN(c2nc(Nc3ccc(N4CCCC(O)C4)nc3)c3c(=O)[nH]ncc3n2)CC1` (stereo unspecified), the half-maximal inhibitory concentration (IC50) in test [1] and in test [2] was less than 50 nM each time.
Take `O=C(O)CN1CCN(c2ccc(Nc3nc(N4CCCCCC4)nc4cn[nH]c(=O)c34)cc2)CC1`: the IC50 in test [1] and in test [2] was less than 10 nM in each case.
In turn, `N#CCC1CCN(c2nc(Nc3ccc(F)cc3)c3c(=O)[nH]ncc3n2)CC1` gave a concentration for half-maximal inhibition (IC50) in test [1] greater than 100 nM.
Turning to `O=C1CC2(CCN(c3nc(Nc4ccc(CN5CCNCC5)cc4)c4c(=O)[nH]ncc4n3)CC2)CC(=O)N1`, the IC50 in test [1] was greater than 100 nM.
On to `CN(c1nc(Nc2ccc(N3CCC4(CC3)CC4C(=O)O)cc2)c2c(=O)[nH]ncc2n1)C1CCCCC1` (stereo unspecified), for which the figures for the half-inhibitory concentration (IC50) in test [1] and in test [2] were less than 50 nM and less than 10 nM, respectively.
On the same counts, the results for `CC(C)(C#N)N1CCN(CCOc2ccc(Nc3nc(N4CCCCCC4)nc4cn[nH]c(=O)c34)cc2)CC1` are less than 50 nM and less than 50 nM.
For `CC(C)(Oc1ccc(Nc2nc(N3CCCCCC3)nc3cn[nH]c(=O)c23)cc1)C(=O)O`, the half-inhibitory concentration (IC50) in test [1] is less than 50 nM; in test [2], less than 10 nM.
The corresponding values for `O=c1[nH]ncc2nc(N3CCCCC3)nc(Nc3ccc(OCCN4CCCNCC4)cc3)c12` are less than 50 nM and less than 50 nM.
